Counter-ions that a name gives are not always drawn. Like-named read-outs stand apart in the source and are kept apart here.
Tests used:
G9a [1] = molecular target: T1, G9a (Mus musculus, UniProt Q9Z148); test: Methyltransferase inhibition assay, G9a
T1 sequence (Q9Z148 1-1263): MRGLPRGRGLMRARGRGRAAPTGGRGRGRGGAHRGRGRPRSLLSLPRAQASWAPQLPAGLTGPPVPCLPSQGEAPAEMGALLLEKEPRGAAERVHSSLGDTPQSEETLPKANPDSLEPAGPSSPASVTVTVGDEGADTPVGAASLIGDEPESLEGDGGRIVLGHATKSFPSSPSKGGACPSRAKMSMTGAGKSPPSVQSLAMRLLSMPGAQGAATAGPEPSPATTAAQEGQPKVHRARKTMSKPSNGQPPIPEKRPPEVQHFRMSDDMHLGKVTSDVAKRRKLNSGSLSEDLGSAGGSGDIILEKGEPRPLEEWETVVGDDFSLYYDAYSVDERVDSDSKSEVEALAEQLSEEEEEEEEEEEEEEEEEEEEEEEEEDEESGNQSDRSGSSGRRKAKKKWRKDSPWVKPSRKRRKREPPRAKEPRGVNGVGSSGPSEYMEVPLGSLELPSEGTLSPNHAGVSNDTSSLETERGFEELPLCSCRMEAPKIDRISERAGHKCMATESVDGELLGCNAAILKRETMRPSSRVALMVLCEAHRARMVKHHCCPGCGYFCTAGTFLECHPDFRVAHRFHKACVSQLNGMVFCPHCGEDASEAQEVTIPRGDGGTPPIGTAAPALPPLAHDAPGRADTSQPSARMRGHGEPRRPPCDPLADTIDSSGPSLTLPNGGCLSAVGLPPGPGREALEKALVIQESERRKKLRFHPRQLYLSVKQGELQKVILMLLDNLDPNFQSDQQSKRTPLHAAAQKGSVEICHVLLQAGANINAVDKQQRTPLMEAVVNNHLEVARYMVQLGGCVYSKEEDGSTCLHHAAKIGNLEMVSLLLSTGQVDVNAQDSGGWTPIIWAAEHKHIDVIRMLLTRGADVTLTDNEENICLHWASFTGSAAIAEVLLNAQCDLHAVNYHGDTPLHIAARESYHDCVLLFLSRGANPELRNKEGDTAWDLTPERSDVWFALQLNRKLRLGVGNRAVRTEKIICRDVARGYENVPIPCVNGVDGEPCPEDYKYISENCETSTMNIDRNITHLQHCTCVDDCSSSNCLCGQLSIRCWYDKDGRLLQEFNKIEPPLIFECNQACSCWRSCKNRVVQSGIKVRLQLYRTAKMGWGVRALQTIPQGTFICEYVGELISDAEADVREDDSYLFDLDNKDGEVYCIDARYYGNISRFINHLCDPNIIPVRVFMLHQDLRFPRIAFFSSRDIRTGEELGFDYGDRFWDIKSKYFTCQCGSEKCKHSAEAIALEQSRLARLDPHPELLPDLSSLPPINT

SUV39H1 [2] = molecular target: T2, SUV39H1 (Homo sapiens, UniProt O43463); test: biochemical; set-up: purchased BPS Biosciences (San Diego, Calif.)
T2 sequence (O43463 1-412): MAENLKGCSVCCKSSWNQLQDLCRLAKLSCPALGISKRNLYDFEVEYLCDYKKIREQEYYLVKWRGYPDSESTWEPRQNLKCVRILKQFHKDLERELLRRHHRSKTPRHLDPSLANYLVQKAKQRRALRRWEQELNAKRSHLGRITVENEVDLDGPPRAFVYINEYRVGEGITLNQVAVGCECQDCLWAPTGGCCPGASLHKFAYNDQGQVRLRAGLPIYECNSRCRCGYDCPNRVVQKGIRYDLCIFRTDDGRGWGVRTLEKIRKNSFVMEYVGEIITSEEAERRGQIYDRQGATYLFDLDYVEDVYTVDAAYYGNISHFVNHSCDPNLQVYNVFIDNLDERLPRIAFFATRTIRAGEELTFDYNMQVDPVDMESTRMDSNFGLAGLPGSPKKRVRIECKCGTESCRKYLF

CARM1 [3] = molecular target: T3, CARM1 (Homo sapiens, UniProt Q86X55); test: biochemical; set-up: GST (from pGEX-KG vector) (N); made in house; host or cells: E. coli (as for hDOT1L); plasmid pGEX-KG-CARM1 from Dr. Qin Feng
T3 sequence (Q86X55 1-608): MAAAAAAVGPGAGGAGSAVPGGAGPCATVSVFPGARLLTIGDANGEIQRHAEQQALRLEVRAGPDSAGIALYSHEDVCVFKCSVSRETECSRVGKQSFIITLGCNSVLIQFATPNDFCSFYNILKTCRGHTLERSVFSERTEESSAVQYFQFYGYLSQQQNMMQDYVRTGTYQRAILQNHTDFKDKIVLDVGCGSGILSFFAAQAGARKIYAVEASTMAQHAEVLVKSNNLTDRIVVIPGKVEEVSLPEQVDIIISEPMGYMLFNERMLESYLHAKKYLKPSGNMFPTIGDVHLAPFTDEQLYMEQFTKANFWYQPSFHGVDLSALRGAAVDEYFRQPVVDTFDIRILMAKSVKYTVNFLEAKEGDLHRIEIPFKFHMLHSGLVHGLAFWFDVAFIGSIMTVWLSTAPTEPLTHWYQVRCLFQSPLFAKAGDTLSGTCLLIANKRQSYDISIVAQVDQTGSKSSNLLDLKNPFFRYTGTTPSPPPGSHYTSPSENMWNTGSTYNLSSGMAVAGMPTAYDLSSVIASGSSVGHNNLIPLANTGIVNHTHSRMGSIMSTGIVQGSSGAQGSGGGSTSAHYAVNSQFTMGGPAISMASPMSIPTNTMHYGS

[4] = test system: CARM1, PRMT1, G9a and SUV39H1; test: Inhibition of other methyltransferases, summarised over the panel; conditions: for activity against other methyltransferases: in words
PRMT1 [5] = molecular target: T4, PRMT1 (Homo sapiens, UniProt Q99873); test: Methyltransferase inhibition assay, PRMT1; type: biochemical; set-up: purchased BPS Biosciences (San Diego, Calif.)
CARM1 [6] = molecular target: T3, CARM1; conditions: read-out: Km value of SAM for CARM1
G9a [7] = molecular target: T1, G9a; conditions: read-out: Km value of SAM for G9a
SUV39H1 [8] = molecular target: T2, SUV39H1; conditions: read-out: Km value of SAM for SUV39H1
DOT1L [9] = molecular target: T5, DOT1L (Homo sapiens, UniProt Q8TEK3); conditions: literature values; read-out: Km value for DOT1L, recent publication; cited from earlier work
T5 construct: Human DOT1 L(1-472) was expressed and purified as described in the literature; GST (N, cleaved yes); made in house; host or cells: E. coli BL21-CodonPlus (Agilent), plasmid pGEX-KG-hDOT1L(1-472)

PRMT1 [10] = molecular target: T4, PRMT1; conditions: read-out: Km value of SAM for PRMT1; from the literature; cited from earlier work
DOT1L [11] = molecular target: T5, DOT1L; test: Determination of Km values of SAM and substrate, DOT1L; type: biochemical; conditions: 30° C., 10 min, pH=8.0

T4 sequence (Q99873 whole entry): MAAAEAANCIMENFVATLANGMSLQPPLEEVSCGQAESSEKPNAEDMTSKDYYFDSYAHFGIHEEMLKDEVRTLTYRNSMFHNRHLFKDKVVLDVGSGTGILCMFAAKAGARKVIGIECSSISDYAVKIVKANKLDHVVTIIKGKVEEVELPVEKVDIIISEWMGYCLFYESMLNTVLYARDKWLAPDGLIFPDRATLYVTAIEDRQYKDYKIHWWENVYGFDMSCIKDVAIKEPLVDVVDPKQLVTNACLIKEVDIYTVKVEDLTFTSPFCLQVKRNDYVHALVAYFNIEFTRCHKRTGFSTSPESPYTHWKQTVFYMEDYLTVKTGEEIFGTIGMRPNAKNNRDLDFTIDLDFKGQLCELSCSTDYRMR
T5 sequence (Q8TEK3 1-472): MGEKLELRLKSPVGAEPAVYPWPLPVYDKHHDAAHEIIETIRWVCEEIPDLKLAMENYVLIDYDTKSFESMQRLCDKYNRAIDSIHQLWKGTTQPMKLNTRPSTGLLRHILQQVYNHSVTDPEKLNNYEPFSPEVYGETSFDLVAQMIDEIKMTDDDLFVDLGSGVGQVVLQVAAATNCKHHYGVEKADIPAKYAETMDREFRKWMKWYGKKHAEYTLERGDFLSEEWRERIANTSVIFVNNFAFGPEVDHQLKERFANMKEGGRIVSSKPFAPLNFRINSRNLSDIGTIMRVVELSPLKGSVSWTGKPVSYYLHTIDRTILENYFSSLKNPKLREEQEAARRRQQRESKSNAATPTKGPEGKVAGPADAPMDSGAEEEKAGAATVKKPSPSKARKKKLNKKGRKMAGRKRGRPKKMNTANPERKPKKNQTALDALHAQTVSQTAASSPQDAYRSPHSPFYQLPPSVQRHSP

With CNc1ncnc2c1ncn2[C@@H]1O[C@H](CSCC[C@H](N)C(=O)O)[C@@H](O)[C@H]1O [Compound 1, S-(N^6-Methyl-adenosyl)-L-homocysteine] the Ki (G9a [1]) was greater than 100 µM.
N[C@@H](CCSC[C@H]1O[C@@H](n2cnc3c(NCc4ccccc4)ncnc32)[C@H](O)[C@@H]1O)C(=O)O [Compound 2, S-(N^6-Benzyl-adenosyl)-L-homocysteine] gave a Ki (SUV39H1 [2]) greater than 100 µM, a Ki (CARM1 [3]) of 18 µM and a Ki (G9a [1]) greater than 100 µM. The “activity on G9a” value (G9a [1]) was “inactive”.
Nc1ncnc2c1ncn2[C@@H]1O[C@H](CN(CCI)CC[C@H](N)C(=O)O)C(O)[C@@H]1O (stereo partly drawn) [Compound 3, N^γ-(5′-Adenosyl)-N^γ-(2-iodoethyl)-(S)-2,4-diaminobutyric acid hydrochloride] gave an IC50 (SUV39H1 [2]) greater than 100 µM, an IC50 (CARM1 [3]) of 46.4 µM and an IC50 (G9a [1]) greater than 100 µM.
Nc1ncnc2c1ncn2[C@@H]1O[C@H](CN(CCI)CCC[C@H](N)C(=O)O)C(O)[C@@H]1O (stereo partly drawn) [Compound 4, N^δ-(5′-Adenosyl)-N^δ-(2-iodoethyl)-(S)-2,5-diaminopentanoic-acid hydrochloride] gave an IC50 (SUV39H1 [2]) greater than 100 µM, an IC50 (CARM1 [3]) of 1.1 µM and an IC50 ([4]; read-out: IC50 values on other methyltransferases, span over the four enzymes) of no less than 1.1 µM. It also gave an IC50 (G9a [1]) of 1.8 µM.
In the case of CNc1ncnc2c1ncn2[C@@H]1O[C@H](CN(CCI)CCC[C@H](N)C(=O)O)C(O)[C@@H]1O (stereo partly drawn) [Compound 5, N^δ-[5′-(N^6-Methyl-adenosyl)]-N^δ-(2-iodoethyl)-(S)-2,5-diaminopentanoic acid hydrochloride], the IC50 (SUV39H1 [2]) is reported as greater than 100 µM, the IC50 (CARM1 [3]) is reported as greater than 100 µM and the “activity against other methyltransferases” value [4] is reported as “essentially inactive”. The IC50 (G9a [1]) was greater than 100 µM.
N[C@@H](CCCN(CCI)C[C@H]1O[C@@H](n2cnc3c(NCc4ccccc4)ncnc32)[C@@H](O)C1O)C(=O)O (stereo partly drawn) [Compound 6, N^δ-[5′-(N^6-Benzyl-adenosyl)]-N^δ-(2-iodoethyl)-(S)-2,5-diaminopentanoic acid hydrochloride] gave an IC50 (SUV39H1 [2]) greater than 100 µM, an IC50 (PRMT1 [5]) greater than 100 µM and an IC50 (CARM1 [3]) greater than 100 µM. For the same compound, the “activity against other methyltransferases” value [4] was “essentially inactive” and the IC50 (G9a [1]) was greater than 100 µM.
Nc1ncnc2c1ncn2[C@@H]1O[C@H](CSCC[C@H](N)C(=O)O)[C@@H](O)[C@H]1O [SAH, S-(5′-adenosyl)-L-homocysteine, reference compound] showed a Ki (G9a [1]) of 0.57 µM.
Work on C[S+](CC[C@H](N)C(=O)O)C[C@H]1O[C@@H](n2cnc3c(N)ncnc32)[C@H](O)[C@@H]1O (stereo partly drawn) [SAM, S-(5′-adenosyl)-L-methionine] yielded a Km (CARM1 [6]) of 1.6 µM, a Km (G9a [7]) of 14.1 µM and a Km (SUV39H1 [8]) of 27.9 µM. For the same compound, the Km (DOT1L [9]) was 0.65 µM, the Km (PRMT1 [10]) was 6 µM and the Km (DOT1L [11]) was 0.76 µM.

Reference: patent publication US20140100184A1, “SELECTIVE INHIBITORS OF HISTONE […] DOT1L” (BAYLOR COLLEGE OF MEDICINE, priority 2012, published 2014)
